{"source": "patent US20260041649A1", "about": "“ANTI-INFLAMMATORY AGENT” (WATANABE OYSTER LABORATORY, CO., LTD., priority 2023, published 2026)", "key": {"[1]": {"test_system": "mouse macrophage RAW264.7 cells", "assay": "Western blotting of caspase-3 and cleaved caspase-3", "type": "cell-based", "conditions": "DHMBA 10 μM, 3 days", "procedure": "FIG. 4 is an explanatory diagram describing that the marine factor 3,5-dihydroxy-4-methoxy benzyl alcohol (DHMBA) stimulates cell death in mouse macrophage RAW264.7 cells. RAW264.7 cells (1×10^5 cells/ml/well in a 24-well plate) were cultured in DMEM containing 10% FBS, 1% P/S, and 1% fungizone for 3 days until they reached subconfluence. The cells were cultured for another 24 hours (FIG. 4A) or 48 hours (FIG. 4B) in the control group (1% ethanol; 0 μM DHMBA as final concentration) and in the DHMBA-treated group (0.1, 1, 10, 100, or 1000 μM). […] After the culture, the number of cells attached to the dish was counted. […]\nRAW264.7 cells (1×10^6 cells/10 ml of 100 mm dish) were cultured for 3 days in 10% FBS, 1% P/S (1% ethanol), or in the DHMBA-treated group (10 μM). […] Protein concentrations in the supernatants were measured using Bio-Rad Protein Assay Dye (Bio-Rad Laboratories, Inc., Hercules, CA, USA) with bovine serum albumin as a standard. […] After incubation, the membranes were further incubated with horseradish peroxidase-conjugated secondary antibodies (Santa Cruz Biotechnology Inc., cat. no. sc-2005 (mouse) or sc-2305 (rabbit); dilution 1:2000) for 60 min at room temperature, and protein bands were detected using chemiluminescence substrates (cat. no. 34577, Thermo Fisher Scientific Inc., Rockford, IL, USA) on X-ray films. […]"}, "[2]": {"test_system": "RAW264.7 cells cultured with LPS", "assay": "Cell proliferation of RAW264.7 cells cultured with LPS", "type": "cell-based, mouse", "conditions": "DHMBA 1 or 10 μM, LPS 100 ng/ml, 3 days", "procedure": "In FIG. 5A, to examine the effect on cell proliferation, RAW264.7 cells (1×10^5/ml/well) were cultured for 3 days in a DMEM culture medium containing 10% FBS, 1% P/S, and 1% fungizone in the control group (1% ethanol as final concentration) with or without LPS (1, 10, 50, 100, 500 ng/ml). In FIG. 5B, cells (1×10^5/ml per well) were cultured for 3 days in a DMEM culture medium containing 10% FBS, 1% P/S, and 1% fungizone in the DHMBA-treated group (1 or 10 μM) with or without LPS (100 ng/ml). In FIG. 5C, to examine the effect on cell death, cells that had reached subconfluence after 3 days of culture were cultured for another 48 hours in the control group (1% ethanol) with or without LPS (1, 10, 50, 100, or 500 ng/ml). In FIG. 5D, cells that had reached subconfluence were cultured for another 48 hours in the DHMBA-treated group (1 or 10 μM) with or without LPS (100 ng/ml). After the culture, the number of cells attached to the dish was counted. Data are presented as the mean±SD from a total of 8 wells in 2 plates using different cell preparations. *: Significant difference (p<0.01) versus the controls without LPS (gray bars) (FIG. 5A and FIG. 5C) or without DHMBA (gray bars) (FIG. 5B and FIG. 5D). […]\nThe number of viable cells was counted under a microscope (Olympus MTV-3) using a hemocytometer (Sigma-Aldrich) and a cell counter (H-102P, Line Seiki Co., Ltd., Tokyo, Japan)."}}, "data": [{"compound": "COc1c(O)cc(CO)cc1O", "note": "[DHMBA, 3,5-dihydroxy-4-methoxybenzyl alcohol]", "values": [{"measurement": "level of caspase-3", "setting": "[1]", "result": "increased"}, {"measurement": "level of cleaved caspase-3", "setting": "[1]", "result": "increased"}, {"measurement": "proliferation of RAW264.7 cells in the presence of LPS", "setting": "[2]", "result": "suppressed"}]}]}
